Literature values as cited in US7473804B2, “Polymorphs of atomoxetine hydrochloride” (Teva Pharmaceutical Fine Chemicals s.r.l., priority 2004, dated 2009).

Details: as disclosed in U.S. Pat. No. 4,018,895, EP 0 052 492, EP 0 721 777

CNCC[C@@H](Oc1ccccc1C)c1ccccc1 [Atomoxetine, (R)(−)-N-methyl-3-(2-methylphenoxy)-3-phenylpropylamine]
effectiveness relative to the (+)-enantiomer: about nine times more effective than the (+)-enantiomer | effectiveness relative to the racemic mixture (tomoxetine): about twice as effective as the racemic mixture
